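Step 1: Grow cells in 96-well plates. Step 2: Expose to compound for 48 hours at 5 concentrations. Step 3: Interpolate endpoints linearly; if unreached, use highest concentration. GI50 is the concentration that inhibits growth by half.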 Active and inactive are the calls of the source. Rule as the data show it: active = GI50 up to about 1.1 µM and inactive = higher.
What was measured:
Experiment in all cases: NCI anticancer screen, dose series, 48 h
[1] = system: HCT-15
[2] = system: SNB-19
[3] = system: A498
[4] = system: HCC 2998
[5] = system: UACC-62
[6] = system: NCI-H226
[7] = system: SN12C
[8] = system: RPMI-8226
[9] = system: NCI-H23
[10] = system: SF-268
[11] = system: UO-31
[12] = system: M14
[13] = system: UACC-257
[14] = system: NCI-H460
[15] = system: SR
[16] = system: RXF 393
[17] = system: MOLT-4

Compound | GI50 [1] [µM] | GI50 [2] | GI50 [3] | GI50 [4] | GI50 [5] | GI50 [6] | GI50 [7] | GI50 [8] | GI50 [9] | GI50 [10] | GI50 [11] | GI50 [12] | GI50 [13] | GI50 [14] | GI50 [15] | GI50 [16] | GI50 [17]
O=c1cc2ccccc2nn1Cc1cccc(Cl)c1 | 99.5 | > 100 µM (inactive) | > 100 µM (inactive) | > 100 µM (inactive) | > 100 µM (inactive) | 57.1 µM (inactive) | 97.9 µM (inactive) | 30.7 µM (inactive) | 57.3 µM (inactive) | 90.2 µM (inactive) | 37.5 µM (inactive) | > 100 µM (inactive) | > 100 µM (inactive) | > 100 µM (inactive) |  |  | 
Cc1ccc(S(=O)(=O)C(CC(=O)N2CCCC2)C(=O)c2ccccc2)cc1 (stereo unspecified) |  | > 100 µM (inactive) |  | > 100 µM (inactive) | > 100 µM (inactive) |  | > 100 µM (inactive) |  | > 100 µM (inactive) | 83.4 µM (inactive) | > 100 µM (inactive) | > 100 µM (inactive) | > 100 µM (inactive) | > 100 µM (inactive) | 25.5 µM (inactive) | > 100 µM (inactive) | 25.6 µM (inactive)
CC(=O)OC1(C#N)CC2OC1C1C2N1C(=O)OC(C)(C)C (stereo unspecified) | > 100 | > 100 µM (inactive) | > 100 µM (inactive) | > 100 µM (inactive) | > 100 µM (inactive) | > 100 µM (inactive) | > 100 µM (inactive) | > 100 µM (inactive) | > 100 µM (inactive) | > 100 µM (inactive) | > 100 µM (inactive) | > 100 µM (inactive) |  | > 100 µM (inactive) |  | > 100 µM (inactive) | > 100 µM (inactive)
Nc1ncnc2sc(Nc3ccccc3)nc12 | > 100 | > 100 µM (inactive) |  | > 100 µM (inactive) | > 100 µM (inactive) | > 100 µM (inactive) | 80.4 µM (inactive) | > 100 µM (inactive) | 48.3 µM (inactive) | > 100 µM (inactive) | 45.8 µM (inactive) | 92 µM (inactive) | > 100 µM (inactive) | > 100 µM (inactive) | 38 µM (inactive) |  | > 100 µM (inactive)
COc1ccc2c3c1C(=O)CCCC3CO2 (stereo unspecified) | > 100 | > 100 µM (inactive) | > 100 µM (inactive) | > 100 µM (inactive) | > 100 µM (inactive) | > 100 µM (inactive) | > 100 µM (inactive) | > 100 µM (inactive) | > 100 µM (inactive) | > 100 µM (inactive) | > 100 µM (inactive) | > 100 µM (inactive) | > 100 µM (inactive) | > 100 µM (inactive) |  | > 100 µM (inactive) | > 100 µM (inactive)
CN(C)c1ccc(/C=c2/sc3nc(=O)c(-c4ccccc4NC(=O)C(F)(F)F)nn3c2=O)cc1 |  | > 100 µM (inactive) |  | > 100 µM (inactive) | > 100 µM (inactive) | 26.4 µM (inactive) | > 100 µM (inactive) |  | 67.6 µM (inactive) | > 100 µM (inactive) | 50 µM (inactive) | > 100 µM (inactive) |  | > 100 µM (inactive) | 93.8 µM (inactive) | > 100 µM (inactive) | > 100 µM (inactive)
CC(C)(C)c1cc2nc(c1)C(C(F)(F)F)(C(F)(F)F)OB(Br)OC2(C(F)(F)F)C(F)(F)F | 0.0299 | 0.156 µM (active) |  | 0.233 µM (active) | 0.0176 µM (active) |  | 0.173 µM (active) | 0.0607 µM (active) | 4.47 µM (inactive) | 3.01 µM (inactive) | 0.292 µM (active) | 0.0209 µM (active) | < 0.01 µM (active) |  |  | 10 µM (inactive) | < 0.01 µM (active)
CC1CCC2CC(=O)OC([C@@H]3C(=O)O[C@@H](C4=CCCC4)C4C(C)CCC43)C12 (stereo partly specified) | 48.2 | > 100 µM (inactive) |  | > 100 µM (inactive) | > 100 µM (inactive) | > 100 µM (inactive) | > 100 µM (inactive) | 37.2 µM (inactive) | > 100 µM (inactive) | > 100 µM (inactive) | > 100 µM (inactive) | > 100 µM (inactive) | > 100 µM (inactive) | 58.1 µM (inactive) | 39 µM (inactive) | > 100 µM (inactive) | 36.2 µM (inactive)
Cc1c2cc[n+](C)cc2c(C)c2c1[nH]c1ccc(OCC(F)(F)F)cc12 |  | 0.817 µM (active) |  | 5.05 µM (inactive) | 6.82 µM (inactive) | 0.499 µM (active) | 0.277 µM (active) |  | 1.23 µM (inactive) | 0.376 µM (active) |  |  |  | 1.85 µM (inactive) | 2.67 µM (inactive) |  | 2.61 µM (inactive)
COc1ccc(-c2cc(=O)c3ccc(O)cc3o2)c(OC)c1OC |  | 65 µM (inactive) |  | 48.8 µM (inactive) | 36.2 µM (inactive) | > 100 µM (inactive) | 82.8 µM (inactive) | 18.9 µM (inactive) | 43.4 µM (inactive) | 41.3 µM (inactive) |  | 72.9 µM (inactive) | 94 µM (inactive) |  |  | 28.9 µM (inactive) | 

Reference: ChEMBL document CHEMBL1201862, “PubChem BioAssay data set” (2004)
